{
  "source": "patent US20230149919A1",
  "about": "“CASSETTE FOR PRESERVATION OF NATURAL AND BIOENGINEERED TISSUES” (TISSUE TESTING TECHNOLOGIES LLC, priority 2021, published 2023)",
  "test_system": "Epiderm construct",
  "assay": "Viability of constructs with additives in culture medium before and after vitrification",
  "format": "cell-based, Human",
  "details": "added to culture medium before and after vitrification, αT and QVD together",
  "method": "Resazurin Assay: Was used to measure the metabolic activity and has the advantage of being non-toxic so constructs can be assessed before and several times after treatment. Resazurin dye (alamarBlue) was used to assess cell viability by measuring the oxidation/reduction reactions that take place within cells. The dye is added directly to the culture wells and the plates were incubated for 3 hours at 37° C. Upon reduction, the dye changes color and this was measured and quantified using a fluorescent microplate reader at an excitation wavelength of 544 nm and an emission wavelength of 590 nm.\nThe initial vitrification protocol was one that was developed for use with vein segments and rings. The process uses a 6 step (15-minute incubation) protocol to add the cryoprotectant (CPA) solution into the construct. The insert is then left in a glass scintillation vial in 1.5 mL vitrification solution with 0.3 mL solution inside the insert. The vials are cooled rapidly to −100° C. then slowly cooled to −135° C. where they are stored until rewarming. During rewarming, the samples are warmed slowly to −100° C. then rapidly to room temperature. The vitrification solution is removed using 7 sequential removal steps at 15 minutes each (FIG. 4, original protocol). Several changes were made to this protocol to produce better and sustainable viability for the Epiderm construct.\nA series of changes were made to how the vitrification solution was loaded and unloaded from the construct. These changes included shorter incubation steps (5 minutes instead of 15), using a lower concentration of cryoprotectant to load the full-strength vitrification solution into the construct and also a more mechanical change that involved dilution of the full strength vitrification solution to half its concentration by a simple dilution step as opposed to removal from one solution to the next. This shortened the amount of time that the construct was exposed to the full-strength vitrification solution reducing potential cytotoxicity caused by exposure to the vitrification solution (modified protocol).\nThe arrived at protocol starts with an overnight incubation with αT and QVD. The next day, the constructs are vitrified using the 6-step addition protocol, 5 minutes each step, to add the cryoprotectant (CPA) solution into the construct. The insert is then left in the final vitrification solution with 0.3 mL solution inside the insert. The vials are cooled rapidly to −100° C. then slowly cooled to −135° C. where they are stored until rewarming. During rewarming, the samples are warmed slowly to −100° C. then rapidly to room temperature. The vitrification solution is removed using 7 sequential removal steps at 5 minutes each. […]",
  "data": [
    {"compound": "CC(C)[C@H](NC(=O)c1ccc2ccccc2n1)C(=O)N[C@@H](CC(=O)O)C(=O)COc1c(F)cccc1F", "note": "[Q-VD-OPH, quinoline-Val-Asp-difluorophenoxymethyl ketone]", "values": [
      {"measurement": "Effect of additive on construct viability", "result": "improved viability"},
      {"measurement": "Effect of additive on construct viability", "setting": "listed as QVD", "result": "significant improvement"}
    ]},
    {"compound": "Cc1c(C)c2c(c(C)c1O)CC[C@@](C)(CCC[C@H](C)CCC[C@H](C)CCCC(C)C)O2", "note": "[α-tocopherol]", "values": [
      {"measurement": "Effect of additive on construct viability", "result": "improved viability"},
      {"measurement": "Effect of additive on construct viability", "setting": "listed as αT", "result": "significant improvement"}
    ]}
  ]
}
